Reference: US20230174523A1, “BENZENESULFONAMIDE DERIVATIVES AS TRAP1 MODULATORS AND USES THEREOF” (Amathus Therapeutics, Inc., priority 2020, published 2023)

Biological target: T1, TRAP1 enzyme (Homo sapiens, UniProt Q12931)
T1 sequence (Q12931 60-704): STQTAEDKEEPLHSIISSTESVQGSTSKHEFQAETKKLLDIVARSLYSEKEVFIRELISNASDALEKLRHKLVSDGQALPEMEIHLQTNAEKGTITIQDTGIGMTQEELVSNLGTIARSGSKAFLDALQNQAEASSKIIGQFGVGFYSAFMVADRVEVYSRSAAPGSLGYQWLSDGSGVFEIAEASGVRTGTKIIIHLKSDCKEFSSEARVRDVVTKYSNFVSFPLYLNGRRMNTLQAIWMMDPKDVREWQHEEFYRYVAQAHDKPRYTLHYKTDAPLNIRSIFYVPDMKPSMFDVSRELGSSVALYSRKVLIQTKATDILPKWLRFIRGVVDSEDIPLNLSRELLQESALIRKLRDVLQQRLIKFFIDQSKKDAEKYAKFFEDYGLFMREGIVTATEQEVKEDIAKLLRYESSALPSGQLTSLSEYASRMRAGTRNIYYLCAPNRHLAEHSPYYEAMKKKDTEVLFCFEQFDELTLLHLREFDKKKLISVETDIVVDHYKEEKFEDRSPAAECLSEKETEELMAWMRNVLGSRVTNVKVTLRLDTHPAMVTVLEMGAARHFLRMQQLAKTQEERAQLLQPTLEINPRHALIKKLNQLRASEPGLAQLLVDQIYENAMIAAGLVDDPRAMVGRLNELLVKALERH
Assay: ADP Glo assay of TRAP1 ATPase activity
Assay type: biochemical
Conditions: for EC50: TRAP1 ATPase activation, 150 nM Trap1, 20 μM ATP, geometric mean, read-out: ADP GLO DRC: GeoMean EC50; for Emax: read-out: ADP GLO DRC: Mean Emax
Method in brief: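 150 nM TRAP1 preincubated with compound (0.79–100 μM) 30 min at 37° C in Pipes pH 7.5 buffer (0.05 mM MgCl2, 40 mM KCl), then 20 μM ATP added for 60 min at 37° C. ADP quantified by ADP-Glo luminescence against ATP/ADP standard curve. Emax and EC50 from sigmoidal fit.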

SMILES	EC50	Emax
COc1ccc(NC(=O)c2ccc3c(=O)n(C)cnc3c2)cc1S(=O)(=O)Nc1c(C)cccc1C [Compound 1124]	10 to 20 µM	200 to 300%
COc1ccc(NC(=O)c2scc(C)c2Cl)cc1S(=O)(=O)Nc1c(C)cccc1C [Compound 1128]	< 10 µM	160 to 199%
O=C(Nc1ccc(F)c(S(=O)(=O)Nc2ccc(Cl)cc2)c1)c1cccc(-c2cncnc2)c1 [Compound 690]	< 10 µM	160 to 199%
COc1ccc(NC(=O)c2cnn(Cc3ccccc3)c2)cc1S(=O)(=O)Nc1c(C)cccc1C [Compound 1068]	< 10 µM	200 to 300%
COc1ccc(NC(=O)c2cnc(Cl)s2)cc1S(=O)(=O)Nc1c(C)cccc1C [Compound 1070]	< 10 µM	200 to 300%
Cc1nc2cc(C(=O)Nc3ccc(F)c(S(=O)(=O)Nc4ccc(Cl)cc4)c3)ccc2n1-c1ccccc1 [Compound 735]	< 10 µM	123 to 159%
COc1ccc(NC(=O)c2cnn(-c3cccnc3)c2)cc1S(=O)(=O)Nc1c(C)cccc1C [Compound 1106]	10 to 20 µM	200 to 300%
COc1ccc2oc(C(=O)Nc3ccc(OC)c(S(=O)(=O)Nc4c(C)cccc4C)c3)cc2c1 [Compound 1112]	< 10 µM	160 to 199%
COc1ccc(NC(=O)c2cc(-c3ccnn3C)c(Cl)s2)cc1S(=O)(=O)Nc1c(C)cccc1C [Compound 1079]	< 10 µM	160 to 199%
COc1ccc(NC(=O)c2ccnn2C(C)C)cc1S(=O)(=O)Nc1c(C)cccc1C [Compound 1104]	10 to 20 µM	200 to 300%
COc1ccc(NC(=O)c2ccc(S(=O)(=O)N(C)C)cc2)cc1S(=O)(=O)Nc1c(C)cccc1C [Compound 1120]	20 to 100 µM	160 to 199%
Cc1nc(C(=O)Nc2ccc(F)c(S(=O)(=O)Nc3ccc(Cl)cc3)c2)nn1-c1ccc(F)cc1 [Compound 835]	10 to 20 µM	123 to 159%
COc1ccc(NC(=O)c2cnc(OC)c(C(F)(F)F)c2)cc1S(=O)(=O)Nc1c(C)cccc1C [Compound 1073]	< 10 µM	123 to 159%
CCOc1ncccc1C(=O)Nc1ccc(F)c(S(=O)(=O)Nc2ccc(Cl)cc2)c1 [Compound 704]	10 to 20 µM	200 to 300%
COc1cc(C(=O)Nc2ccc(F)c(S(=O)(=O)Nc3ccc(Cl)cc3)c2)cc(Cl)c1OC [Compound 775]	10 to 20 µM	123 to 159%
Cc1cc(C)n(Cc2cccc(C(=O)Nc3ccc(F)c(S(=O)(=O)Nc4ccc(Cl)cc4)c3)c2)n1 [Compound 807]	< 10 µM	160 to 199%
COc1ccc(NC(=O)c2csc(C)c2C)cc1S(=O)(=O)Nc1c(C)cccc1C [Compound 1005]	< 10 µM	200 to 300%
COc1cnc(Cl)c(C(=O)Nc2ccc(OC)c(S(=O)(=O)Nc3c(C)cccc3C)c2)c1 [Compound 1072]	20 to 100 µM	160 to 199%
O=C(Nc1ccc(F)c(S(=O)(=O)Nc2ccc(Cl)cc2)c1)c1cccc2c1OC(F)(F)O2 [Compound 737]	10 to 20 µM	123 to 159%
Cc1onc(-c2ccccc2Cl)c1C(=O)Nc1ccc(F)c(S(=O)(=O)Nc2ccc(Cl)cc2)c1 [Compound 728]	10 to 20 µM	123 to 159%
COc1ccc(NC(=O)c2ncccc2-c2ccccc2)cc1S(=O)(=O)Nc1c(C)cccc1C [Compound 1098]	10 to 20 µM	200 to 300%
COc1ccc(NC(=O)c2cc(F)ccc2OC(F)(F)F)cc1S(=O)(=O)Nc1c(C)cccc1C [Compound 1092]	< 10 µM	160 to 199%
COCCn1ccc(C(=O)Nc2ccc(OC)c(S(=O)(=O)Nc3c(C)cccc3C)c2)n1 [Compound 1066]	20 to 100 µM	160 to 199%
COc1ccc(NC(=O)c2noc3c2CCCC3)cc1S(=O)(=O)Nc1c(C)cccc1C [Compound 1114]	10 to 20 µM	200 to 300%
O=C(Nc1ccc(F)c(S(=O)(=O)Nc2ccc(Cl)cc2)c1)c1cccc2cnccc12 [Compound 773]	10 to 20 µM	123 to 159%
COc1ccc(NC(=O)c2ccc3c(Br)nn(C)c3c2)cc1S(=O)(=O)Nc1c(C)cccc1C [Compound 1024]	< 10 µM	200 to 300%
COc1ccc(NC(=O)c2ccc3c(c2)C2CCCS2(=O)=N3)cc1S(=O)(=O)Nc1c(C)cccc1C (centres unmarked) [Compound 1016]	20 to 100 µM	200 to 300%

Second part, the molecule after the results:

EC50	Emax	SMILES
< 10 µM	160 to 199%	COc1ccc(NC(=O)c2csc(-c3cccs3)n2)cc1S(=O)(=O)Nc1c(C)cccc1C [Compound 1136]
< 10 µM	123 to 159%	COc1ccc(NC(=O)c2coc(-c3cc(F)c(F)c(F)c3)n2)cc1S(=O)(=O)Nc1c(C)csc1C [Compound 2415]
10 to 20 µM	200 to 300%	COc1ccc(NC(=O)c2cnc(-c3c(OC)cccc3OC)[nH]2)cc1S(=O)(=O)Nc1ccc(Cl)cc1 [Compound 1969]
20 to 100 µM	123 to 159%	COc1ccc(NC(=O)c2ccc3ocnc3c2)cc1S(=O)(=O)Nc1c(C)cccc1C [Compound 1272]
< 10 µM	160 to 199%	COc1ccc(NC(=O)c2ccccc2Oc2ccccc2)cc1S(=O)(=O)Nc1c(C)cccc1C [Compound 1234]
< 10 µM	160 to 199%	COc1ccc(NC(=O)c2ccc(Cn3cc(Cl)cn3)cc2)cc1S(=O)(=O)Nc1c(C)cccc1C [Compound 1237]
20 to 100 µM	160 to 199%	COc1ccc(NC(=O)c2ncc(-c3ccccc3)o2)cc1S(=O)(=O)Nc1cc2ccccc2nn1 [Compound 1825]
20 to 100 µM	123 to 159%	COc1ccc(NC(=O)c2cccc(-n3cnnn3)c2)cc1S(=O)(=O)Nc1c(C)cccc1C [Compound 1259]
20 to 100 µM	160 to 199%	COc1ccc(NC(=O)c2ccc(C)nc2OC)cc1S(=O)(=O)Nc1ccc(Cl)cc1 [Compound 1963]
< 10 µM	160 to 199%	COc1ccc(NC(=O)c2csc3c2CCCC3)cc1S(=O)(=O)Nc1c(C)cccc1C [Compound 1144]
< 10 µM	160 to 199%	COc1ccc(NC(=O)c2ccc(-c3ccccn3)s2)cc1S(=O)(=O)Nc1c(C)cccc1C [Compound 1152]
< 10 µM	123 to 159%	COc1ccc(NC(=O)c2cc3ccccc3n2C)cc1S(=O)(=O)Nc1c(C)cccc1C [Compound 1170]
20 to 100 µM	123 to 159%	COc1ccc(NC(=O)c2ncccc2C(=O)c2ccccc2)cc1S(=O)(=O)Nc1c(C)cccc1C [Compound 1275]
< 10 µM	200 to 300%	COc1ccc(NC(=O)c2cnc(-c3cccs3)[nH]2)cc1S(=O)(=O)Nc1ccc(Cl)cc1 [Compound 1938]
10 to 20 µM	160 to 199%	COc1ccc(NC(=O)c2cccc(-n3nc(C)cc3C)c2)cc1S(=O)(=O)Nc1c(C)cccc1C [Compound 1249]
20 to 100 µM	123 to 159%	CCn1nc(C(C)C)cc1C(=O)Nc1ccc(F)c(S(=O)(=O)Nc2ccc(Cl)cc2)c1 [Compound 1282]
20 to 100 µM	123 to 159%	CCc1cc(C(=O)Nc2ccc(F)c(S(=O)(=O)Nc3ccc(Cl)cc3)c2)cc(C)n1 [Compound 1286]
20 to 100 µM	160 to 199%	COc1ccc(NC(=O)c2cc(C#N)ccc2Br)cc1S(=O)(=O)Nc1c(C)cccc1C [Compound 1141]
20 to 100 µM	123 to 159%	COc1ccc(NC(=O)c2ncc(-c3ccccc3)o2)cc1S(=O)(=O)Nc1ccc(C)nc1F [Compound 1684]
< 10 µM	160 to 199%	COc1ccc(NC(=O)c2cnc(-c3ccsc3)[nH]2)cc1S(=O)(=O)Nc1ccc(Cl)cc1 [Compound 1482]
10 to 20 µM	160 to 199%	COc1ccc(NC(=O)c2ccc3sc(C)nc3c2)cc1S(=O)(=O)Nc1c(C)cccc1C [Compound 1269]
< 10 µM	160 to 199%	COc1ccc(NC(=O)c2cc(-c3ccccc3)no2)cc1S(=O)(=O)Nc1c(C)cccc1C [Compound 1229]
20 to 100 µM	123 to 159%	COc1ccc(NC(=O)c2ccc3c(c2)ncn3C)cc1S(=O)(=O)Nc1c(C)cccc1C [Compound 1228]
< 10 µM	> 300%	COc1ccc(NC(=O)c2cccc(-c3ccnn3C)c2)cc1S(=O)(=O)Nc1c(C)cccc1C [Compound 1242]
< 10 µM	123 to 159%	COc1ccc(NC(=O)c2csc(-c3cc(F)c(F)c(F)c3)n2)cc1S(=O)(=O)Nc1c(C)csc1C [Compound 2406]
10 to 20 µM	200 to 300%	COc1ccc(NC(=O)c2cccc(-n3ccnc3)c2)cc1S(=O)(=O)Nc1c(C)cccc1C [Compound 1232]
< 10 µM	160 to 199%	COc1ccc(NC(=O)c2nc(C(C)C)cs2)cc1S(=O)(=O)Nc1c(C)cccc1C [Compound 1169]
20 to 100 µM	123 to 159%	CCc1nccc(C)c1NS(=O)(=O)c1cc(NC(=O)c2ncc(-c3ccccc3)o2)ccc1OC [Compound 1697]
